Values joined by “and” are separate entries in the source; they are usually repeats but may differ in a detail not shown here. Equal entries are not always repeated. “Also recorded” adds a separate entry of the source. Where two headings read alike, the source gives them in different places.
Experiments:
[1] = target: T1, LAT1 in MCF-7 human breast cancer cells (Homo sapiens, UniProt Q01650); experiment: cis-inhibition of [14C]-L-leucine uptake in MCF-7 cells; assay type: cell-based; details: for inhibition at 50 µM: MCF7, MCF-7 cells
T1 construct: wild-type MCF-7 human breast cancer cell line; endogenous in cells; host or cells: MCF-7 human breast cancer cells (wild type)
Experimental: Cells were cultured in DMEM (Gibco, ThermoFisher Scientific, Waltham, MA, USA) supplemented with L-glutamine (2 mM; ThermoFisher Scientific, Waltham, MA, USA), heat-inactivated fetal bovine serum (10%; Gibco, ThermoFisher Scientific, Waltham, MA, USA), penicillin (50 U/mL)-streptomycin (50 μg/mL) solution (ThermoFisher Scientific, Waltham, MA, USA), and hygromycin B solution (100 μg/mL) for transfected cells. HEK-hLAT1 and HEK-MOCK cells (passages 7–20) were seeded at a density of 5 × 10^5 cells/wells onto 24-well plates. The cells were used in the characterization, competition, and uptake studies 2 days after seeding. MCF-7 cells were seeded at a density of 1 × 10^5 and were used in the competition studies 1 day after seeding. The culture medium was removed, and the cells were washed with prewarmed Hanks’ balanced salt solution (HBSS; 125 mM NaCl, 4.8 mM KCl, 1.2 mM MgSO4, 1.2 mM KH2PO4, 1.3 mM CaCl2, 5.6 mM D-glucose, and 25 mM HEPES, pH 7.4). The cells were then incubated with HBSS at 37 °C for 10 min before the experiments.
(§1) In the following experiments, the MCF-7, HEK-hLAT1, and HEK-MOCK cells were cultured, seeded, and preincubated as described above. The HBSS was removed, and the ability of the compounds to inhibit the uptake of a known LAT1 substrate, [^14C]-L-leucine (PerkinElmer, Waltham, MA, USA), was studied by incubating the cells at RT for 10 min in uptake buffer pH 7.4 (250 μL) containing 0.76 μM (0.1 mCi/mL) of [^14C]-L-leucine and 0.025–1800 μM of the studied compound (or HBSS as blank). After incubation, the reaction was stopped with ice-cold HBSS, and the cells were washed two times with ice-cold HBSS. The cells were then lysed with 250 μL of 0.1 M sodium hydroxide, the lysate was mixed with 1.0 mL of Emulsifier safe cocktail (PerkinElmer, Waltham, MA, USA), and the radioactivity was measured with a liquid scintillation counter (MicroBeta^2 counter, PerkinElmer, Waltham, MA, USA). The inhibition of [^14C]-L-leucine in the presence of the studied compounds as compared to the control (HBSS) was calculated as percentages (%).

hLAT1/4F2hc [2] = target: T2, hLAT1/4F2hc (Homo sapiens, UniProt Q01650); experiment: cis-inhibition of [14C]-L-leucine uptake in HEK-hLAT1 cells; assay type: cell-based; details: for inhibition at 50 µM / [14C]-L-Leucine uptake inhibition % (50μM): 50 μM compound; for inhibition at 50 µM: read-out: [14C]-L-Leucine uptake inhibition % (50μM)
T2 construct: Invitrogen (host cells)
Experimental: as §1
Using the stably hLAT1/4F2hc expressing cell line, the compounds’ inhibitory efficiencies and uptake kinetics were determined via the cis-inhibition assay and uptake studies, respectively. (Table 1) Cis-inhibition is based on the competition between the ligand and LAT1 substrate [^14C]-L-leucine that results in inhibition of substrate uptake. The competitive uptake with L-leucine is reported as the IC50 value of L-leucine uptake and extent as inhibition percentage (%) at a given concentration.

[3] = Conversion of ester conjugate in 0.1 M NaOH (sample lysis); assay type: physicochemical
Experimental: For compound 9, the LLOQ was 0.05 nM with good linearity (R^2 > 0.983).[34] For the compounds 1, 7, and 12, the LLOQ was 12.5 nM, with a linear range of 12.5–2500 nM, and for 11, the LLOQ was 6.3 nM, over the range of 6.3–6250 nM.[28] For 10, the calibration curve was linear with a LLOQ of 1 ng/mL (accuracy ±15%), respectively.[26] For compounds 2–5, the LLOQ was 5.0 nM.[29] Methods were also selective, accurate (RSD < 15%), and precise (RSD < 15%) over the range of 5.0–1000 nM for 5 and for compounds 2–4 5.0–2000 nM. For compound 6, the LLOQ was 10 pmol/g.[33] Ketoprofen was linear with a range of 0.25–25 ng/mL, while compound 8 was completely converted to ketoprofen in 0.1 M NaOH within 30 min.

hLAT1/4F2hc [4] = target: T2, hLAT1/4F2hc; experiment: Concentration-dependent cellular uptake into HEK-hLAT1 cells (LC-MS/MS, Michaelis-Menten); assay type: cell-based; details: difference in uptake HEK-hLAT1 vs HEK-MOCK, with docking poses; 2-100 μM curves
[5] = target: T1, LAT1 in MCF-7 human breast cancer cells; details: MCF-7 cells; read-out: IC50 of [14C]-L-leucine uptake; cited from earlier work
HEK-MOCK cells = experiment: Concentration-dependent cellular uptake into HEK-MOCK cells; assay type: cell-based, human; details: for Km: compounds 1-12; for Vmax: compounds 1-12, 2-400 μM, 10 min
Experimental: (§2) The concentrations for the compounds were in the range of 2–400 μM. Otherwise, the experiment was carried out as described above and analyzed by liquid chromatography coupled with an electrospray ionization (ESI) triple quadrupole mass spectrometer (LC–MS–MS). […]
(§3) The concentration-dependent uptake studies were performed by adding 2–400 μM of the tested compound in 250 μL of prewarmed HBSS buffer on the cell layer. […] After incubation, the cells were washed and lysed as described above. The lysate was collected from wells into an Eppendorf tube and centrifuged at 4 °C, the supernatant was collected, and the intracellular concentrations of studied compounds were analyzed by liquid chromatography coupled with an ESI triple quadrupole mass spectrometer (LC–MS–MS). The results were calculated from the standard curve that was prepared by spiking known amounts of each compound to the cell lysate and normalized to protein concentration. The protein concentrations on each plate were determined as a mean of three samples by Bio-Rad Protein Assay, based on the Bradford dye-binding method, using BSA as a standard protein and measuring the absorbance (595 nm) by a multiplate reader (EnVision, PerkinElmer, Inc., Waltham, MA, USA). All statistical analyses (Michaelis–Menten kinetic parameters) were performed using GraphPad Prism v. 5.03 software (GraphPad Software, San Diego, CA., USA). […]
(§4) After protein precipitation, the samples were centrifuged for 10 min with 10,000 g at 4 °C. The supernatant was then collected and transferred to vials for LC–MS/MS analysis. For BCH and gabapentin, cells were also lysed with 0.1 M NaOH, an aliquot was taken from the lysates, and perchloric acid (PCA) was added to precipitate the proteins. The samples were then centrifuged, and the supernatant was diluted 1:10 with H20 with 0.1% formic acid including the IS and transferred to vials for analysis.
(§5) The samples were analyzed with LC–MS/MS coupled with an Agilent 1200 series Rapid Resolution LC System (Agilent Technologies, Waldbronn, Germany) and an Agilent 6410 Triple Quadrupole with electrospray ionization (ESI) (Agilent Technologies, Palo Alto, CA, USA). […] The aqueous mobile phase was 0.1% formic acid in water (A), while the organic mobile phase was 0.1% formic acid in acetonitrile (B). […] For compound 4: 0–4 min 10% → 90% B, 4–6 min 90% B, 6–6.1 min 90% → 10%, 6.1–9 min 10%. For compound 5: 0–1 min 20% → 95% B, 1–4 min 95%, 4–4.1 min 95% → 20%, 4.1–7 min 20%. For compounds 6 and 9: 0–2 min 10% → 95%, 2–6 min 95%, 6–6.1 min 95% → 10%, 6.1–9 min 10%. For compound 8: 0–1 min 20% → 80%, 1–5.2 min 80%, 5.2–5.3 min 80% → 20%, 5.3–9 min 20%.

MCF-7 cells = details: cited from earlier work
hLAT1/4F2hc [6] = target: T2, hLAT1/4F2hc; experiment: Concentration-dependent cellular uptake into HEK-hLAT1 cells (LC-MS/MS, Michaelis-Menten); assay type: cell-based; details: HEK-hLAT1 cells, compounds 1-12; for Vmax: 2-400 μM, 10 min
Experimental: as §2, §3, §4, §5

[7] = HEK-hLAT1 cells, compounds 1-12
[8] = HEK-hLAT1 cells, compounds 1-12, read-out: IC50 of [14C]-L-leucine uptake
[9] = HEK-hLAT1 cells, compounds 1-12, 50 µM

T1 sequence (Q01650 whole entry): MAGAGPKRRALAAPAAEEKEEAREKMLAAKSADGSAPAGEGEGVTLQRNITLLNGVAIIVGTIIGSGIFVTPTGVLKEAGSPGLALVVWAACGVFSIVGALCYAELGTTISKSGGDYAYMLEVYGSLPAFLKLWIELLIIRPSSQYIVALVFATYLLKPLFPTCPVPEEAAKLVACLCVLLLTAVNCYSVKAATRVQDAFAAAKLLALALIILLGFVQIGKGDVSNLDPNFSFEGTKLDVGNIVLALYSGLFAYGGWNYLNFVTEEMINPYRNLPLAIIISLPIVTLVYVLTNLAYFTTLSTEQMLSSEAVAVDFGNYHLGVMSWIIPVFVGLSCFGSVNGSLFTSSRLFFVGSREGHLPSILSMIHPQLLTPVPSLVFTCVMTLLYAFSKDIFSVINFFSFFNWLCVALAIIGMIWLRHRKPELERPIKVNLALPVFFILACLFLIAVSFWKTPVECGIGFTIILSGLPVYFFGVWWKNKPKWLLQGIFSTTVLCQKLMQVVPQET
T1 sequence (P08195 102-630 partner): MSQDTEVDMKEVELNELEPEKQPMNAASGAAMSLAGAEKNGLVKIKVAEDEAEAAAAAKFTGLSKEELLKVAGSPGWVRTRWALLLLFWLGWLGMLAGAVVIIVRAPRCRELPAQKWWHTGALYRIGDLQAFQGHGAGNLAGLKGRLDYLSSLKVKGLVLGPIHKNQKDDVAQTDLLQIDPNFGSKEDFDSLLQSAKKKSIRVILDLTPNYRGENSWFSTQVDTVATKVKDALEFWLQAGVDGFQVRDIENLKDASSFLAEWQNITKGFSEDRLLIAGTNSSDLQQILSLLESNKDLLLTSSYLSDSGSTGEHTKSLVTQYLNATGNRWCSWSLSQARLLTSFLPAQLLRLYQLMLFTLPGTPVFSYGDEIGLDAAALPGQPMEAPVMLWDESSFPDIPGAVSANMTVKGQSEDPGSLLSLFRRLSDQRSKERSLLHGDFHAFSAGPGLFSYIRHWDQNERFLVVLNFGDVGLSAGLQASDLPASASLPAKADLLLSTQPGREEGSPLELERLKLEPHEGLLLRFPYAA
T2 sequence (Q01650 whole entry): as the sequence (Q01650 whole entry) above
T2 sequence (P08195 102-630 partner): as the sequence (P08195 102-630 partner) above

inhibition at 50 µM ([1]; 50 μM compound) [%] | IC50 ([1]; MCF-7 cells) [µM] | inhibition at 50 µM (hLAT1/4F2hc [2]; [7]) [%] | IC50 (hLAT1/4F2hc [2]; [8]) [µM] | time to complete conversion to ketoprofen [3] [min] | interaction class with LAT1 (interaction and transportability) (hLAT1/4F2hc [4]) | [14C]-L-Leucine uptake inhibition % (50μM) ([1]; MCF-7 cells, 50 μM compound, 50 µM) [%] | Km (hLAT1/4F2hc [6]; read-out: Km) [µM] | SMILES | [14C]-L-Leucine uptake inhibition % (50μM) (hLAT1/4F2hc [2]; [9]) | IC50 [5] [µM] | Km (HEK-MOCK cells) [µM] | Vmax (HEK-MOCK cells) | IC50 (hLAT1/4F2hc [2]) [µM] | [14C]-L-Leucine uptake inhibition % (50μM) (hLAT1/4F2hc [2]; [7]) | Vmax (MCF-7 cells; MCF-7 cells, previous studies) [pmol/min/mg] | Km (hLAT1/4F2hc [6]) [µM] | Vmax (hLAT1/4F2hc [6]) | Km (MCF-7 cells; MCF-7 cell line) [µM] | Vmax (MCF-7 cells; MCF-7 cell line) [pmol/min/mg]
83 ± 0.9 | 0.4 ± 0.08 | 24 ± 2.3 | > 100 | ≤ 30 |  |  |  | CC(C(=O)Oc1cccc(C[C@H](N)C(=O)O)c1)c1cccc(C(=O)c2ccccc2)c1 (stereo partly drawn) [Compound 8] |  |  |  |  |  |  |  |  |  |  | 
79.7 ± 7.87 |  |  | > 100 |  | low |  |  | COc1cc(/C=C/C(=O)Nc2cccc(C[C@H](N)C(=O)O)c2)ccc1O [Compound 9] | not able to inhibit; also recorded: no inhibition | 1.1 ± 0.08 | 94 ± 45 | 149±41 pmol/min/mg of protein |  |  |  |  |  |  | 
40 | 137 ± 1.6 | 10 | > 100 |  | low | 45±1.7 |  | CCCN(CCC)S(=O)(=O)c1ccc(C(=O)Nc2cccc(C[C@H](N)C(=O)O)c2)cc1 [Compound 10] | 11±9.9% |  |  | 248±616 pmol/min/mg of protein |  |  |  |  |  | 15.2 | 111
93 ± 0.5 |  | 48 ± 1.8 | 11 |  | medium interactions |  | 19 ± 7.3 | CC(C(=O)Nc1cccc(C[C@H](N)C(=O)O)c1)c1cccc(C(=O)c2ccccc2)c1 (stereo partly drawn) [Compound 5] |  | 0.5 ± 0.05 | 109 ± 69 | 63±24 pmol/min/mg of protein |  |  |  |  | 63±7.5 pmol/min/mg of protein |  | 

SMILES | inhibition at 50 µM ([1]; 50 μM compound) [%] | IC50 ([1]; MCF-7 cells) [µM] | inhibition at 50 µM (hLAT1/4F2hc [2]; [7]) [%] | IC50 (hLAT1/4F2hc [2]; [8]) [µM] | time to complete conversion to ketoprofen [3] [min] | interaction class with LAT1 (interaction and transportability) (hLAT1/4F2hc [4]) | [14C]-L-Leucine uptake inhibition % (50μM) ([1]; MCF-7 cells, 50 μM compound, 50 µM) [%] | Km (hLAT1/4F2hc [6]; read-out: Km) [µM] | [14C]-L-Leucine uptake inhibition % (50μM) (hLAT1/4F2hc [2]; [9]) | IC50 [5] [µM] | Km (HEK-MOCK cells) [µM] | Vmax (HEK-MOCK cells) | IC50 (hLAT1/4F2hc [2]) [µM] | [14C]-L-Leucine uptake inhibition % (50μM) (hLAT1/4F2hc [2]; [7]) | Vmax (MCF-7 cells; MCF-7 cells, previous studies) [pmol/min/mg] | Km (hLAT1/4F2hc [6]) [µM] | Vmax (hLAT1/4F2hc [6]) | Km (MCF-7 cells; MCF-7 cell line) [µM] | Vmax (MCF-7 cells; MCF-7 cell line) [pmol/min/mg]
N[C@@H](Cc1ccc(OC(=O)NCCc2ccc(O)c(O)c2)cc1)C(=O)O [Compound 2] |  |  |  |  |  | highest interactions |  |  |  |  | 8.7 ± 12 | 19 pmol/min/mg of protein and 19±12 pmol/min/mg of protein | > 100 | no inhibition | < 3 | 103 ± 41 | 1521 pmol/min/mg of protein and 1521±364 pmol/min/mg of protein |  | 

From PMC9811466, “Structural Features Affecting the Interactions and Transportability of LAT1-Targeted Phenylalanine Drug Conjugates” (Molecular Pharmaceutics, 2022)
